These results are taken from US20260374754A1, “N-((ISOQUINOLIN-6-YL)METHYL)-1H-PYRAZOLE-4-CARBOXAMIDE DERIVATIVES AS PLASMA KALLIKREIN INHIBITORS FOR THE TREATMENT OF HEREDITARY ANGIODEMA” (Takeda Pharmaceutical Company Limited, priority 2022, published 2026).

Counter-ions that a name gives are not always drawn.

human activated kallikrein enzyme, sequence (P03952 391-638 limits assumed): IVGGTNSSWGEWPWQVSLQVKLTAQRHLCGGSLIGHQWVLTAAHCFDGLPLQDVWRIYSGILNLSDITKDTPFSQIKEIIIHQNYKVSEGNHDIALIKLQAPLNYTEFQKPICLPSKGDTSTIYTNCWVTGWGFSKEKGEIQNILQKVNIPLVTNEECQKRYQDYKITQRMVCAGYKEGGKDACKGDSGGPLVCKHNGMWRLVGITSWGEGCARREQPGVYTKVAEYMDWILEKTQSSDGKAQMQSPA
human activated kallikrein enzyme, sequence (P03952 20-390 partner limits assumed): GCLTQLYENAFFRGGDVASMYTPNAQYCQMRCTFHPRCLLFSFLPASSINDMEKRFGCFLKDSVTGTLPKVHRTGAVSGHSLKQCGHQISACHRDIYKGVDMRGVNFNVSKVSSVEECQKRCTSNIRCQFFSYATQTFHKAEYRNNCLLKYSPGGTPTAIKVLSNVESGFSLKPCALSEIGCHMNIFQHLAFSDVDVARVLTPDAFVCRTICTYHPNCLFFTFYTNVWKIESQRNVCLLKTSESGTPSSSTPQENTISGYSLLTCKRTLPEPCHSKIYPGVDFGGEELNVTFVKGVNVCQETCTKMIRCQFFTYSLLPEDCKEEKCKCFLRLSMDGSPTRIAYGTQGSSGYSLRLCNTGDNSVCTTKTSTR

This test has as its target human activated kallikrein enzyme (Homo sapiens, UniProt P03952). Put plainly: Inhibition of human activated plasma kallikrein, fluorogenic PFR-AMC substrate, 500 pM enzyme format. Format: biochemical. The conditions noted are these: 500 pM activated kallikrein; 300 μM PFR-AMC; 30 min preincubation; 10 min room temperature; pH 7.5; read-out: Primary Dose Response Assay: Average EC50. Put shortly:
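500 pM activated kallikrein preincubated 30 min at room temperature with inhibitors in pH 7.5 Tris/EDTA/NaCl buffer with PEG-400 and Triton X-100. Reaction started with 300 μM PFR-AMC, run 10 min at room temperature; AMC fluorescence read at ex 380/em 460 nm.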
Regarding `Cc1ccc2nc(Cn3cc(C(=O)NCc4c(C)cc5c(N(C(=O)OC(C)C)C(=O)OC(C)C)nccc5c4C)cn3)cn2c1` [Example 3, diisopropyl (5,7-dimethyl-6-((1-((6-methylimidazo[1,2-a]pyridin-2-yl)methyl)-1H-pyrazole-4-carboxamido)methyl)isoquinolin-1-yl)iminodicarbonate], the EC50 was 100 to 1000 nM. As to `Cc1cc2c(N)nccc2c(C)c1CNc1cc(C(F)c2cn3cc(C4CC4)ccc3n2)ncn1` (stereo not drawn) [Example 405, 6-(((6-((6-cyclopropylimidazo[1,2-a]pyridin-2-yl)fluoromethyl)pyrimidin-4-yl)amino)methyl)-5,7-dimethylisoquinolin-1-amine], the EC50 was less than 1 nM. For the compound `COCc1c(C(=O)NCc2c(C)cc3c(N)nccc3c2C)cnn1Cc1ccc(Cn2cccn2)cc1` [Example 188, 1-(4-((1H-pyrazol-1-yl)methyl)benzyl)-N-((1-amino-5,7-dimethylisoquinolin-6-yl)methyl)-5-(methoxymethyl)-1H-pyrazole-4-carboxamide], the EC50 fell in the range of 10 to 100 nM.

Regarding `Cc1cc2c(N)nccc2c(C)c1CNC(=O)c1cnn(Cc2cc3cc(C(F)(F)F)ccc3s2)c1` [Example 66, N-((1-amino-5,7-dimethylisoquinolin-6-yl)methyl)-1-((5-(trifluoromethyl)benzo[b]thiophen-2-yl)methyl)-1H-pyrazole-4-carboxamide], the EC50 was in the range of 1 to 10 nM. As to `Cc1cc2c(N)nccc2c(C)c1CNc1cc(NCc2ccc(OCC(=O)N3CC4CC4C3)cc2)ncn1` (stereo not drawn) [Example 344, 2-(4-(((6-(((1-amino-5,7-dimethylisoquinolin-6-yl)methyl)amino)pyrimidin-4-yl)amino)methyl)phenoxy)-1-(3-azabicyclo[3.1.0]hexan-3-yl)ethan-1-one, formic acid salt], the EC50 is less than 1 nM.

As to `Cc1cc2c(N)nccc2c(C)c1CNc1cc(NCc2ccc(Cn3cccn3)cc2F)ncn1` [Example 379, N^4-(4-((1H-pyrazol-1-yl)methyl)-2-fluorobenzyl)-N^6-((1-amino-5,7-dimethylisoquinolin-6-yl)methyl)pyrimidine-4,6-diamine], the EC50 was less than 1 nM. To `Cc1ccc2nc(Cn3cc(C(=O)NCc4c(C)cc5c(NC(=O)OCc6ccccc6)nccc5c4C)cn3)cn2c1` [Example 7, benzyl (5,7-dimethyl-6-((1-((6-methylimidazo[1,2-a]pyridin-2-yl)methyl)-1H-pyrazole-4-carboxamido)methyl)isoquinolin-1-yl)carbamate] belongs 10 to 100 nM. On to `Cc1cc2c(N)nccc2c(C)c1CNc1nccc(OCc2cn3cc(C4CC4)ccc3n2)n1` [Example 492, 6-(((4-((6-cyclopropylimidazo[1,2-a]pyridin-2-yl)methoxy)pyrimidin-2-yl)amino)methyl)-5,7-dimethylisoquinolin-1-amine], for which the EC50 is 1 to 10 nM.

Take `CC(=O)Nc1nccc2cc(C)c(CNc3cc(NCc4ccc(Cn5ccccc5=O)cc4)ncn3)c(C)c12` [Example 247, N-(6,8-dimethyl-7-(((6-((4-((2-oxopyridin-1(2H)-yl)methyl)benzyl)amino)pyrimidin-4-yl)amino)methyl)isoquinolin-1-yl)acetamide]: the EC50 lay in the range of 1 to 10 nM. Regarding `Cc1cc2c(N)nccc2c(C)c1CNC(=O)c1cnn(Cc2ccc(CC(=O)N3C(C)CCC3C)cc2)c1` (stereo not drawn) [Example 218, N-((1-amino-5,7-dimethylisoquinolin-6-y1)methyl)-1-(4-(2-(2,5-dimethylpyrrolidin-1-yl)-2-oxoethyl)benzyl)-1H-pyrazole-4-carboxamide], the EC50 fell in the range of 1 to 10 nM. In the case of `Cc1cc2c(N)nccc2c(C)c1CNc1cc(NCc2ccc(OCC(=O)N3CCC3)cc2)ncn1` [Example 347, 2-(4-(((6-(((1-amino-5,7-dimethylisoquinolin-6-yl)methyl)amino)pyrimidin-4-yl)amino)methyl)phenoxy)-1-(azetidin-1-yl)ethan-1-one, formic acid salt], the EC50 was less than 1 nM.

As to `Cc1cc2c(N)nccc2c(C)c1CNC(=O)c1cnn(Cc2ccc(CC(N)=O)cc2)c1` [Example 231, 1-(4-(2-amino-2-oxoethyl)benzyl)-N-((1-amino-5,7-dimethylisoquinolin-6-yl)methyl)-1H-pyrazole-4-carboxamide], the EC50 was 10 to 100 nM.

In the case of `Cc1cc2c(N)nccc2c(C)c1CNc1cncc(NCc2ccc(Cn3cccn3)cc2)n1` [Example I-476, N^2-(4-((1H-pyrazol-1-yl)methyl)benzyl)-N^6-((1-amino-5,7-dimethylisoquinolin-6-yl)methyl)pyrazine-2,6-diamine], the EC50 fell in the range of 10 to 100 nM. To `Cc1cc2c(N)nccc2c(C)c1CNC(=O)c1cnn(Cc2ccc3ccc(Cl)cc3n2)c1` [Example 107, N-((1-amino-5,7-dimethylisoquinolin-6-yl)methyl)-1-((7-chloroquinolin-2-yl)methyl)-1H-pyrazole-4-carboxamide] belongs 1 to 10 nM; to `Cc1c(CNc2cc(NCc3ccc(Cn4ccccc4=O)cc3)cnn2)ccc2c(N)nccc12` [Example 536, 1-(4-(((6-(((1-amino-5-methylisoquinolin-6-yl)methyl)amino)pyridazin-4-yl)amino)methyl)benzyl)pyridin-2(1H)-one], less than 1 nM; to `Cc1cc2c(N)nccc2c(C)c1CNc1cc(NCc2ccc(OCc3ncco3)cc2)ncn1` [Example 351, N^4-((1-amino-5,7-dimethylisoquinolin-6-yl)methyl)-N^6-(4-(oxazol-2-ylmethoxy)benzyl)pyrimidine-4,6-diamine, formic acid salt], 1 to 10 nM. On to `Cc1cc2c(N)nccc2c(C)c1CNc1cc(OCc2cccc(-n3ccccc3=O)c2)ncn1` [Example 370, 1-(3-(((6-(((1-amino-5,7-dimethylisoquinolin-6-yl)methyl)amino)pyrimidin-4-yl)oxy)methyl)phenyl)pyridin-2(1H)-one], for which the EC50 lay within 100 to 1000 nM. To `Cc1cc2c(N)nccc2c(C)c1CNc1ccnc(OCc2ccc(Cn3cccn3)cc2)c1` [Example I-455, 6-(((2-((4-((1H-pyrazol-1-yl)methyl)benzyl)oxy)pyridin-4-yl)amino)methyl)-5,7-dimethylisoquinolin-1-amine] belongs 1 to 10 nM. To `COc1ccc2cc(Cn3cc(C(=O)NCc4c(C)cc5c(N)nccc5c4C)cn3)cnc2c1` [Example 110, N-((1-amino-5,7-dimethylisoquinolin-6-yl)methyl)-1-((7-methoxyquinolin-3-yl)methyl)-1H-pyrazole-4-carboxamide] belongs 1 to 10 nM. Take `Cc1cc2c(N)nccc2c(C)c1CNS(=O)(=O)c1cnn(Cc2cn3cc(C4CC4)ccc3n2)c1` [Example 490, N-((1-amino-5,7-dimethylisoquinolin-6-yl)methyl)-1-((6-cyclopropylimidazo[1,2-a]pyridin-2-yl)methyl)-1H-pyrazole-4-sulfonamide]: the EC50 was 10 to 100 nM.

Consider `Cc1cc2c(N)nccc2c(C)c1CNc1cc(OC(C)c2cn3nc(C4CC4)ccc3n2)ncn1` (stereo not drawn) [Example 493, 6-(((6-(1-(6-cyclopropylimidazo[1,2-b]pyridazin-2-yl)ethoxy)pyrimidin-4-yl)amino)methyl)-5,7-dimethylisoquinolin-1-amine], for which the EC50 is 10 to 100 nM. To `Cc1cc2c(N)nccc2c(C)c1CNC(=O)c1cn(Cc2cn3cc(C4CC4)ccc3n2)nc1C(F)F` [Example 199, N-((1-amino-5,7-dimethylisoquinolin-6-y1)methyl)-1-((6-cyclopropylimidazo[1,2-a]pyridin-2-y1)methyl)-3-(difluoromethyl)-1H-pyrazole-4-carboxamide] belongs less than 1 nM. Consider `Cc1ccc(Cn2cc(C(=O)NCc3c(C)cc4c(N)nccc4c3C)cn2)cc1` [Example 35, N-((1-amino-5,7-dimethylisoquinolin-6-yl)methyl)-1-(4-methylbenzyl)-1H-pyrazole-4-carboxamide], for which the EC50 was in the range of 10 to 100 nM. The value for `Cc1cc2c(N)nccc2c(C)c1CNC(=O)c1cnn(Cc2ccc3nc(C)c(C)nc3c2)c1` [Example I-464, N-((1-amino-5,7-dimethylisoquinolin-6-yl)methyl)-1-((2,3-dimethylquinoxalin-6-yl)methyl)-1H-pyrazole-4-carboxamide] was less than 1 nM; that for `Cc1cc2c(N)nccc2c(C)c1CNC(=O)c1cnn(Cc2ccc3cc(F)ccc3n2)c1` [Example 158, N-((1-amino-5,7-dimethylisoquinolin-6-yl)methyl)-1-((6-fluoroquinolin-2-yl)methyl)-1H-pyrazole-4-carboxamide] was 1 to 10 nM. As for `Cc1cc2c(N)nccc2c(C)c1CNC(=O)c1cnc(Cc2cn3cc(C4CC4)ccc3n2)s1` [Example 198, N-((1-amino-5,7-dimethylisoquinolin-6-y1)methyl)-2-((6-cyclopropylimidazo[1,2-a]pyridin-2-yl)methyl)thiazole-5-carboxamide], the concentration for a half-maximal effect (EC50) lay in the range of 1 to 10 nM. In the case of `Cc1cc2c(N)nccc2c(C)c1CNc1nccc2nnn(Cc3cn4cc(C5CC5)ccc4n3)c12` [Example 253, 6-(((3-((6-cyclopropylimidazo[1,2-a]pyridin-2-yl)methyl)-3H-[1,2,3]triazolo[4,5-c]pyridin-4-yl)amino)methyl)-5,7-dimethylisoquinolin-1-amine], the EC50 lay within 100 to 1000 nM.

Take `Cc1cc2c(N)nccc2c(C)c1CNc1ncnc(NCc2ccc(Cn3cccn3)cc2)c1F` [Example 234, N4-(4-((1H-pyrazol-1-yl)methyl)benzyl)-N6-((1-amino-5,7-dimethylisoquinolin-6-yl)methyl)-5-fluoropyrimidine-4,6-diamine]: the EC50 was 10 to 100 nM.

`Cc1cc2c(N)nccc2c(C)c1CNc1ccnc(OCc2cn3cc(C4CC4)ccc3n2)c1` [Example 279, 6-(((2-((6-cyclopropylimidazo[1,2-a]pyridin-2-yl)methoxy)pyridin-4-yl)amino)methyl)-5,7-dimethylisoquinolin-1-amine]: the EC50 was in the range of 1 to 10 nM. For `Cc1ccc2cc(Cn3cc(C(=O)NCc4c(C)cc5c(N)nccc5c4C)cn3)ccc2n1` [Example 64, N-((1-amino-5,7-dimethylisoquinolin-6-yl)methyl)-1-((2-methylquinolin-6-yl)methyl)-1H-pyrazole-4-carboxamide], the EC50 is less than 1 nM.

A word on the EC50: it is the concentration needed to bring the measured effect to its halfway point.
